Measured values reported in US20140081017A1, “Histone Deacetylase Inhibitors for Enhancing Activity of Antifungal Agents” (METHYLGENE INC., priority 2012, published 2014).
≈ marks a conversion by molar mass, not a printed value. Like-named read-outs stand apart in the source and are kept apart here.

How the values were obtained:
Candida albicans = assay: Minimal Inhibitory Concentration (MIC) assay, broth microdilution per CLSI; format: cell-based; conditions: Candida albicans, read-out: Minimum Inhibitory Concentrations against Yeast Isolates, Candida albicans;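 also: two read times 24 hr and 48 hr of incubation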
How it was run: (§1)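 Following CLSI procedure, compounds dissolved in DMSO on the assay day are diluted twofold and added to MOPS-buffered RPMI at pH 7.0. Saline suspensions of the yeasts, matched to 0.5 McFarland, are diluted 1:100 and inoculated, then plates incubate at 35° C for about 24-48 hr.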

Candida glabrata = assay: as above; format: cell-based; conditions: Nakaseomyces glabratus, read-out: Minimum Inhibitory Concentrations against Yeast Isolates, Candida glabrata;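 also: two read times 24 hr and 48 hr of incubation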
How it was run: as §1

Candida parapsilosis = assay: as above; format: cell-based; conditions: Lodderomyces parapsilosis, read-out: Minimum Inhibitory Concentrations against Yeast Isolates, Candida parapsilosis;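 also: two read times 24 hr and 48 hr of incubation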
How it was run: as §1

C. glabrata = assay: Checkerboard FIC assay in combination with fluconazole (MIC alone and in combination, FICI); format: cell-based, Candida glabrata; conditions: for FICI of combination resulting in fluconazole MIC of: 2 ug/mL / FICI of combination resulting in fluconazole MIC of: 4 ug/mL / FICI of combination resulting in fluconazole MIC of: 8 ug/mL: FICI calculated using a fluconazole MIC of 16 μg/mL; for FICI of combination resulting in fluconazole MIC of: 2 ug/mL (value in parenthesis) / FICI of combination resulting in fluconazole MIC of: 4 ug/mL (value in parenthesis) / FICI of combination resulting in fluconazole MIC of: 8 ug/mL (value in parenthesis): FICI using a fluconazole MIC of 128 μg/mL; for MIC: Nakaseomyces glabratus; for Multiple of compound MIC to synergize fluconazole MIC to 2 ug/mL / Multiple of compound MIC to synergize fluconazole MIC to 4 ug/mL / Multiple of compound MIC to synergize fluconazole MIC to 8 ug/mL: concentration in combination as multiple of the compound's MIC alone; for Multiple of compound MIC to synergize fluconazole MIC to 2 ug/mL: fluconazole MIC 2 ug/mL; for Multiple of compound MIC to synergize fluconazole MIC to 4 ug/mL: fluconazole MIC 4 ug/mL; for Multiple of compound MIC to synergize fluconazole MIC to 8 ug/mL: fluconazole MIC 8 ug/mL; for Concentration of Methylgene compound to synergize fluconazole MIC to 2 ug/mL / Concentration of Methylgene compound to synergize fluconazole MIC to 4 ug/mL / Concentration of Methylgene compound to synergize fluconazole MIC to 8 ug/mL: in combination with fluconazole; for Concentration of Methylgene compound to synergize fluconazole MIC to 2 ug/mL: fluconazole MIC lowered to 2 ug/mL; for Concentration of Methylgene compound to synergize fluconazole MIC to 4 ug/mL: fluconazole MIC lowered to 4 ug/mL; for Concentration of Methylgene compound to synergize fluconazole MIC to 8 ug/mL: fluconazole MIC lowered to 8 ug/mL
How it was run: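 C. glabrata was tested by CLSI broth microdilution checkerboard, crossing 2-fold dilutions of compound with 2-fold dilutions of fluconazole. The medium was RPMI with 0.165 M MOPS at pH 7.0, inoculated from a 0.5 McFarland suspension diluted 1:100, then incubated about 48 h at 35 °C. Single-agent MICs gave the FIC and FICI values.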

[1] = 24 hr reading (first value of cell 24 hr/48 hr)
[2] = 48 hr reading (second value of cell 24 hr/48 hr)
[3] = MIC of the example compound alone against C. glabrata in the checkerboard assay, approximately 48 hr, read-out: Methylgene MIC
[4] = test compound alone, C. glabrata, approx. 48 hr at 35° C., read-out: Compound MIC

MIC (Candida albicans; [1])	MIC (Candida albicans; [2])	MIC (Candida glabrata; [1])	MIC (Candida glabrata; [2])	MIC (Candida parapsilosis; [1])	MIC (Candida parapsilosis; [2])	FICI of combination resulting in fluconazole MIC of: 2 ug/mL (C. glabrata; C. glabrata)	FICI of combination resulting in fluconazole MIC of: 4 ug/mL (C. glabrata; C. glabrata)	FICI of combination resulting in fluconazole MIC of: 8 ug/mL (C. glabrata; C. glabrata)	FICI of combination resulting in fluconazole MIC of: 2 ug/mL (value in parenthesis) (C. glabrata; C. glabrata)	FICI of combination resulting in fluconazole MIC of: 4 ug/mL (value in parenthesis) (C. glabrata; C. glabrata)	FICI of combination resulting in fluconazole MIC of: 8 ug/mL (value in parenthesis) (C. glabrata; C. glabrata)	MIC (C. glabrata; [3])	MIC (C. glabrata; [4])	Multiple of compound MIC to synergize fluconazole MIC to 2 ug/mL (C. glabrata)	Multiple of compound MIC to synergize fluconazole MIC to 4 ug/mL (C. glabrata)	Multiple of compound MIC to synergize fluconazole MIC to 8 ug/mL (C. glabrata)	Concentration of Methylgene compound to synergize fluconazole MIC to 2 ug/mL (C. glabrata; C. glabrata)	Concentration of Methylgene compound to synergize fluconazole MIC to 4 ug/mL (C. glabrata; C. glabrata)	Concentration of Methylgene compound to synergize fluconazole MIC to 8 ug/mL (C. glabrata; C. glabrata)	SMILES
> 64 µg/mL	> 64 µg/mL	> 64 µg/mL	> 64 µg/mL	> 64 µg/mL	> 64 µg/mL	0.375	0.375	0.625	0.266	0.156	0.188	8 µg/mL	8 µg/mL	(¼x)	(⅛x)	(⅛x)	2 µg/mL	1 µg/mL	1 µg/mL	COCCOCCOCCNC(=O)c1ccc(CCCCc2ccc(CC(=O)NO)cc2)cc1 [Example 11, 4-(4-(4-(2-(hydroxyamino)-2-oxoethyl)phenyl)butyl)-N-(2-(2-(2-methoxyethoxy)ethoxy)ethyl)benzamide]
0.25 µg/mL (≈ 0.841 µM)	0.25 µg/mL (≈ 0.841 µM)	0.25 µg/mL (≈ 0.841 µM)	0.25 µg/mL (≈ 0.841 µM)	0.12 µg/mL (≈ 0.403 µM)	0.25 µg/mL (≈ 0.841 µM)	1.063	0.605	0.490	1.016	0.511	0.303	0.25 µg/mL	0.25 µg/mL	(1x)	(½x)	(¼x)	0.25 µg/mL	0.12 µg/mL	0.06 µg/mL	Cc1ccc(CCCCc2ccc(CC(=O)NO)cc2)cc1 [Example 4, N-hydroxy-2-(4-(4-p-tolylbutyl)phenyl)acetamide]
> 32 µg/mL	> 32 µg/mL	4 µg/mL (≈ 11.2 µM)	16 µg/mL (≈ 44.9 µM)	> 32 µg/mL	> 32 µg/mL	0.563	0.375	0.500	0.516	0.281	0.313	16 µg/mL	16 µg/mL	(½x)	(¼x)	(¼x)	8 µg/mL	4 µg/mL	4 µg/mL	O=C(Cc1ccc(CCCCc2cccc(NC(=O)CO)c2)cc1)NO [Example 41, N-hydroxy-2-(4-(4-(3-(2-hydroxyacetamido)phe-nyl)butyl)phenyl)acetamide]
